Measurements published in US11701360B2, “Composition for inducing differentiation and protection of neural stem cells and method for inducing neuro-regeneration using the same composition” (GENUV Inc., priority 2017, dated 2023).

What was measured:
[1] = system: mouse embryonic neural stem cells; experiment: Immunocytochemistry analysis (Tuj1/DAPI staining); type: cell-based; settings: 10 nM; 4 days
Procedure: Tuj1 (Neuron specific class III beta-tubulin) is a neuron specific marker protein, which was conjugated to rhodamine to show fluorescent red, while DAPI binds to the cell DNA and stains the cell nuclei fluorescent blue. […] The medium was removed and the cells were washed with PBS. After fixing with 10% formaldehyde (Sigma cat #. HT501128) at room temperature for 10 minutes, they were washed again with PBS. They were permeabilized with 0.2% Triton X-100 (Sigma, cat #. 93443) at room temperature for 15 minutes, washed with PBS, and incubated with 10% BSA (Sigma, cat #. A2153)+1% normal goat serum (Vector lab, Burlingame, Calif., cat #. S1000) at room temperature for 1 hour. […] The solution was removed, washed with PBS, and incubated at room temperature for 1 hour with the secondary antibody (rhodamine-conjugated antibody) diluted in 1% BSA+1% normal goat serum at a ratio of 1:200. Then, the cells were washed with PBS, incubated with 5 μg/ml DAPI (Sigma, cat #. D9542) for 5 minutes, washed with PBS again, and mounted on a slide glass for analysis with a fluorescent microscope.

[2] = system: 5XFAD mouse; experiment: Tuj1 and calbindin staining of cerebellar Purkinje cells, 5XFAD mouse; type: in vivo; settings: particularly 0.1 mg/kg; vs vehicle
Excerpt: Two slides for Tuj1 staining and three for calbindin staining are shown for each treatment group.

[3] = system: mouse adult neural stem cells; experiment: qRT-PCR of neuronal marker mRNA expression in mouse adult NSC; type: cell-based; settings: 10 nM; 2 days
[4] = system: mouse embryonic neural stem cells; experiment: qRT-PCR of neuronal marker mRNA expression in mouse embryonic NSC; type: cell-based
Procedure: Isopropanol (Ducsan, GyunggiDo, Korea, cat #. 67-63-0) was added and mixed for RNA isolation, then centrifuged again to remove the supernatant and obtain the pellet. The RNA pellet was resuspended in 75% ethanol (Ducsan, cat #. 64-17-15), centrifuged, and the supernatant removed. The pellet was then resuspended in sterilized triple distilled water to obtain the mRNA, incubated for 10 minutes at 55° C., and stored at −80° C.
Sterilized triple distilled water, 1 pM oligo dT, and 1 mM dNTP were added to the RNA and incubated for 5 minutes at 65° C. This was followed by the addition of 5× First-strand buffer, 10 mM DTT, and M-MLV reverse transcriptase and incubated at 42° C. for 1 hour, then at 72° C. for 15 minutes, and at 4° C. for 30 minutes. The synthesized cDNA was stored at −20° C.
The term relative mRNA expression level signifies that in order to normalize each group's total RNA level, the mRNA expression level of each differentiation marker is divided by the expression level of GAPDH whose expression level is fairly constant across cells, and then the values of each test material are compared with those of the controls (undifferentiated NSC) in each group.

[5] = system: 5XFAD mouse; experiment: TUNEL assay of apoptosis in brain slices, 5XFAD mouse; type: in vivo; settings: orally daily for 28 days; vs vehicle
Procedure: The TUNEL assay stains the 3′-hydroxyl terminus of fragmented DNA, allowing the detection of cells undergoing apoptosis in the tissue.
Specifically, the brain tissue slides were permeabilized with 20 μg/ml proteinase K solution for 10 minutes, incubated with equilibration buffer for 10 minutes, and then incubated with TdT solution at 37° C. for 1 hour.

[6] = system: mouse embryonic neural stem cells; experiment: Morphology analysis (phase-contrast) of NSC differentiation in mouse embryonic neural stem cells; type: cell-based; settings: 4 days of culture
Procedure: Neural stem cells were isolated from the brain of a day 14.5 mouse embryo, treated with 10 ng/ml human basic fibroblast growth factor (bFGF) (Peprotech, Princeton, NG, cat #0.100-18B) and 20 ng/ml human epidermal growth factor (EGF) (Peprotech, cat #. AF-100-15) in a N2 culture medium, and cultured in suspension in a 25 cm2 flask (Nunc, Pittsburgh, Pa.) for 4 days. Formation of neurospheres was observed after 2 days.
In order to isolate single cells, 6-well plates were prepared the day before by treating the wells with 15 μg/ml poly-L-ornithine (Sigma, St. Louis, Mo., cat #.P2533) solution and incubating overnight at 37° C. for coating. The day of the single cell isolation, poly-L-ornithine solution was removed, the plates were washed with PBS three times, and 10 μg/ml fibronectin (Gibco, Waltham, Mass., cat #. 33016015) solution was added and incubated at 37° C. for 2 hours for coating.
Various concentrations of the compound of [Formula 1]
FIG. 10b is the analysis of Tuj1 mRNA expression in the cells of each group.

[7] = system: 5XFAD mouse; experiment: Nissl, NeuN and DCX staining in the hippocampal dentate gyrus, 5XFAD mouse; type: in vivo; settings: orally daily for 28 days
Procedure: After placing in 0.1% cresyl violet (Sigma, cat #. C5042) solution at room temperature for 15 minutes, they were dehydrated by sequentially immersing in 80%, 90%, 100% alcohol, and xylene. Coverslips were put on the slides and the neurons examined.
NeuN staining was performed by the same method as described in Example 8 as was DCX staining, but using anti-DCX antibodies (Santa Cruz, cat #. sc271390) instead of anti-NeuN antibodies.

[8] = system: 5XFAD mouse; experiment: BrdU staining in the hippocampal dentate gyrus, 5XFAD mouse; settings: orally daily for 28 days; vs vehicle
Procedure: For the BrdU staining to be performed later, 50 mg/kg of BrdU (Sigma, cat #. B5002) was added to the daily dose for the last 5 days. The mouse was then anesthetized and perfused with PBS for the extraction of the brain. […] The other half of the hemispheres plus another 3 extracted mice brains per group were placed in 10% formalin solution at 4° C. for 1 day, which was then followed with the proceeding steps to allow good penetration of paraffin into the brain tissue. The brain tissues were immersed sequentially in 70%, 80%, 95%, 100% alcohol for 1 hour each for dehydration, then immersed in xylene 3 times for 1 hour each for clearing, and embedded in paraffin by placing in liquid paraffin 2 times for 1 hour each. After these procedures, the paraffin-embedded brain tissue (paraffin block) was cut into 5 μm sections, mounted on slides, and stored at room temperature. Prior to immunohistochemical staining, the tissues on the slides were rehydrated by sequentially immersing in xylene, 100%, 90%, 80%, 70%, 50% alcohol, and then water for 5 minutes each. […] The next day, the slides were incubated with anti-rabbit antibodies (Vector lab, cat #. PI-1000) at room temperature for 1 hour and then stained with DAB staining for the analysis of the neuronal distribution in the brain.

[9] = system: pERK; experiment: Western blotting of pERK in brain hemispheres, 5XFAD mouse; type: in vivo; settings: 0.1 mg/kg and 1.0 mg/kg PO; vs vehicle
[10] = system: MEK 1, MEK2; settings: cited from earlier work
[11] = system: Aβ(1-40) and Aβ(1-42); experiment: ELISA of Aβ(1-40) and Aβ(1-42) in brain hemispheres, 5XFAD mouse; type: in vivo; settings: orally daily for 28 days; vs vehicle
[12] = system: mouse adult neural stem cells; settings: 10 nM and 100 nM; regardless of 10 μM amyloid-beta; 4 days
Procedure: NSC were isolated from the subventricular zone of week 8 mouse brain, treated with 20 ng/ml human basic fibroblast growth factor (bFGF) and 20 ng/ml human epidermal growth factor (EGF) in an IPM medium, and cultured as a suspension in 24-well plates for 7 days.
Two days before the isolation of single cells, 6-well plates were prepared by treating the wells with 10 μg/ml poly-L-ornithine solution and incubating overnight at room temperature for coating. The next day, poly-L-ornithine solution was removed and the plates were washed 3 times with sterilized triple distilled water. […] The culture solution used is N2 culture medium (supplemented with 20 ng/ml bFGF and 20 ng/ml EGF). Right before seeding, the coating solution was suctioned out, and the single cells were uniformly seeded into the culture plate before the plate dried up. Cells were allowed to attach to the plates for about one minute, and after checking that cells were sufficiently attached, an additional 1.5 ml of culture medium (N2 culture medium with 20 ng/ml bFGF and 20 ng/ml EGF) was added to the cells and cultured in a 37° C. incubator for 24 hours.
Wells not treated with amyloid-beta were left to use as negative controls.
Gibco's (Waltham, Mass.) human Aβ (1-42) was purchased to use for the amyloid-beta (Aβ), and the following process was followed to create oligomers. […] Then, it was dried for 10 minutes in a speed Vac, after which DMSO (Sigma, cat #.D2650) was added to bring the concentration to 5 mM and then lightly vortexed at room temperature for 10 minutes. […] The solution was incubated at 4° C. for 24 hours and then added into the cultured cells.
The NCSs were cultured with the daily addition of EGF, bFGF, amyloid-beta, and test materials for 4 days.

[13] = system: 5XFAD mouse; experiment: NeuN immunohistochemical staining of brain slices, 5XFAD AD model mouse; type: in vivo; settings: orally daily for 28 days; vs vehicle
Procedure: The mouse was then anesthetized and perfused with PBS for the extraction of the brain. […] The other half of the hemispheres plus another 3 extracted mice brains per group were placed in 10% formalin solution at 4° C. for 1 day, which was then followed with the proceeding steps to allow good penetration of paraffin into the brain tissue. The brain tissues were immersed sequentially in 70%, 80%, 95%, 100% alcohol for 1 hour each for dehydration, then immersed in xylene 3 times for 1 hour each for clearing, and embedded in paraffin by placing in liquid paraffin 2 times for 1 hour each. After these procedures, the paraffin-embedded brain tissue (paraffin block) was cut into 5 μm sections, mounted on slides, and stored at room temperature. […]
FIG. 13b indicates the number of NeuN stained cells counted and represented as the percentage of the number of cells per unit area in the motor cortex layer 5 region. Area samples were taken from 6 areas per mouse, 3 mice per group, so the number of cells counted was from a total of 18 areas.
FIG. 14b indicates the number of NeuN stained cells counted and represented as the percentage of the number of cells per unit area in the dotted area of the hippocampal subiculum shown in FIG. 14a. Area samples were taken from 3 areas per mouse, 3 mice per group, so the number of cells counted was from a total of 9 areas.

[14] = system: 5XFAD mouse; experiment: Tuj1 staining in the somatosensory cortex, 5XFAD mouse; type: in vivo
Procedure: Anti-Tuj1 antibodies were added to the brain tissue slides of 5XFAD mouse in Example 8 and incubated at 4° C. for 1 day, after which the tissue slides were fluorescently stained by incubating with Fluorescein isothiocyanate (FITC)-secondary antibodies (Invitrogen, cat #. A21121) at room temperature for 1 hour. In FIG. 15, the areas marked with arrows (→) indicate cells stained with Tuj1 and the areas marked with arrowheads (▾) indicate plaques formed by amyloid-beta aggregation. Plaques were present in both vehicle-treated and trametinib-treated groups.

[15] = 1 nM, 10 nM, 25 nM, 100 nM, 2 days

CC(=O)Nc1cccc(-n2c(=O)n(C3CC3)c(=O)c3c(Nc4ccc(I)cc4F)n(C)c(=O)c(C)c32)c1 [trametinib, N-(3-{3-cyclopropyl-5-[(2-fluoro-4-iodophenyl)amino]-6,8-dimethyl-2,4,7-trioxo-3,4,6,7-tetrahydropyrido[4,3-d]pyrimidin-1(2H)-yl}phenyl)acetamide]
neuron differentiation (Tuj1 staining) [1]: increasingly active differentiation activity
axon structure of cerebellar Purkinje cells [2]: increased axon arborization or at least with preserved axon structure
mRNA expression of cholinergic neuron marker ChAT [3]: increased
mRNA expression of dopaminergic neuron marker TH [3]: increased
mRNA expression of neuronal marker Tuj1 [3]: increased
mRNA expression of GABAergic neuron marker Gad1 [4, 15]: increased with the increase in concentration
mRNA expression of cholinergic neuron marker ChAT [4, 15]: increased with the increase in concentration
mRNA expression of dopaminergic neuron marker TH [4, 15]: increased with the increase in concentration
mRNA expression of motor neuron marker Isl1 [4, 15]: increased with the increase in concentration
concentration at which differentiation-inducing effect is exerted (Tuj1, TH mRNA) ([4]; 4 days): 1 nM
number of TUNEL stained cells in somatosensory cortex and subiculum [5]: significantly lower
differentiation of NSC into neurons (morphology) ([6]; 10 nM, 25 nM and 100 nM): readily induced the differentiation of NSC into neurons
concentration at which differentiation of NSC into neurons is seen [6]: ≥ 10 nM
immature neurons stained by DCX in dentate gyrus [7]: seen to be present
number of cells with Type 2 or Type 3 morphology in dentate gyrus (Nissl and NeuN staining) [7]: increased considerably
number of cells stained with BrdU in the dentate gyrus [8]: an increase in the number of cells stained with BrdU
protein level of pERK in the brain [9]: considerably lower
IC50 [10]: 0.92 to 3.4 nM
amount of Aβ(1-42)/Aβ(1-40) in brain [11]: decreased
differentiation of NSC into neurons (morphology) [12]: readily induced the differentiation of NSC into neurons
number of NeuN stained neurons, hippocampal subiculum [13]: significant increase in the number of neurons
number of NeuN stained neurons, motor cortex layer 5 [13]: significant increase in the number of neurons
lowest dose showing neural stem cell differentiation-inducing activity [14]: 0.1 mg/kg/day
